# Measurements from PubChem BioAssay (NCI).
# Values joined by “and” are separate entries in the source; they are usually repeats but may differ in a detail not shown here. Equal values may be shown once.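 Assay format: 96-well plates, 48-hour exposure. Here, GI50 denotes the concentration required for 50% inhibition of growth. The concentration for full growth arrest is given as TGI.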
# System: MDA-MB-468 breast
# Experiment: NCI-60 cell line screen, 48 h
SMILES,GI50,TGI
CN(C)CCN1C(=O)c2cccc3c(-c4ccc5ncn(C6CCCCC6)c5c4)ccc(c23)C1=O,1.74 µM,4.33 µM
COc1cc(C(=O)/C=C/c2c(-c3cccs3)nc3ccccn23)cc(OC)c1OC,1.72 µM,3.4 µM
CCOC(=O)c1cn2ncnc(Oc3ccc(NC(=O)NCCN(CC)CC)c(Cl)c3)c2c1C,9.57 µM,29 µM
Cc1ccc2oc(=O)cc(C3c4ccc([nH]4)C(c4cc(=O)oc5ccc(C)cc45)c4ccc([nH]4)C(c4cc(=O)oc5ccc(C)cc45)c4ccc([nH]4)C(c4cc(=O)oc5ccc(C)cc45)c4ccc3[nH]4)c2c1 (stereo unspecified),0.0344 µM,1.86 µM
O=C(Nc1cccc(Cl)c1)Nc1nc2ccc([N+](=O)[O-])cc2o1,2.26 µM,5.73 µM
ClC1=C(Cl)C(Cl)=C(Cl)C1=Cc1ccc(Cl)cc1Cl,0.257 µM,0.728 µM
COc1ccc(-c2cc3nccn3c(Nc3ncccc3C(N)=O)n2)cc1OC,> 100 µM,> 100 µM
Cc1ccc(C(=O)Nc2ccccc2C(=O)N/N=C(\c2ccccc2)c2ccccn2)cc1,0.266 µM,2.94 µM
c1ccc([P+](CCC[P+](c2ccccc2)(c2ccccc2)c2ccccc2)(c2ccccc2)c2ccccc2)cc1,1.72 µM,26.3 µM
CCCCc1oc2ccccc2c1C(=O)c1cc(I)c(OCCN(CC)CC)c(I)c1,1.49 µM,3.12 µM
COc1cc(/C=N/O)nc(-c2ccccn2)c1,0.307 µM,1.7 µM
CC(C)(C)n1cc(-c2ccnc(NCCCNS(=O)(=O)c3ccc(Cl)cc3)c2)c(-c2cccc(O)c2)n1,1.8 µM,4.16 µM
CO[C@@]12[C@H](COC(N)=O)C3=C(C(=O)C(C)=C(N)C3=O)N1C[C@@H]1N[C@@H]12,0.241 µM and 1.01 µM,1.3 µM and 4.9 µM
O=C(NNc1nc2cc(F)cc(F)c2n2cccc12)c1cccnn1,0.638 µM and 0.219 µM,2.43 µM and 1.47 µM
O=C(Nn1c2c(sc1=NC1CC1)C(=O)c1ccccc1C2=O)c1cc2ccc1CCc1ccc(cc1)CC2,2.55 µM,7.32 µM
CC1(C)CC(O)CCCCCCOc2c(CN)cccc2NC(=O)c2nc(cnc2N)-c2ccc(cc2)S1(=O)=O (stereo unspecified),0.49 µM,2.45 µM
c1cc(-c2cnn3nc(N4CCOCC4)ccc23)nc(NC2CC2)n1,6.8 µM,21 µM
COc1cc(C2c3cc4c(cc3OC(N3CCOCC3)C2C)OCO4)cc(OC)c1OC (stereo unspecified),4.15 µM,> 100 µM
C=C1C(=O)O[C@H]2[C@H]1CC/C(COC(=O)NCc1cccc(OC)c1)=C\CC[C@@]1(C)O[C@@H]21,1.29 µM,3.84 µM
Cc1[nH]ccc2cc3nc4ccccc4c3cc12,1.91 µM,9.09 µM

SMILES,GI50,TGI
COc1cc2c(cc1-c1c(C)noc1C)ncc1[nH]c(=O)n([C@H](C)c3ccccn3)c12,0.445 µM,> 36.8 µM
C#CCOc1cccc(Nc2ncnc3c2ncn3C2CCN(C(=O)CCl)C2)c1 (stereo unspecified),19.8 µM,41 µM
CCCCCCCCCCC(CN(CC)CC)C(O)c1ccccc1 (stereo unspecified),1.52 µM,3.21 µM
COc1ccc(Cn2cc3c(c2-c2ccccc2)CCc2cncnc2-3)cc1,3.25 µM,11 µM
C=C(C=O)[C@@H]1CC[C@]2(C(=O)O)CC[C@]3(C)C(CC[C@@H]4[C@@](C)(CCC#N)[C@H](C(=C)C=O)CC[C@]43C)[C@@H]12 (stereo partly specified),2.31 µM,5.69 µM
CN1CCN(c2ccc([N+](=O)[O-])c3no[n+]([O-])c23)CC1,0.203 µM,0.821 µM
CC(=O)O[C@@H]1C(=O)N(c2cnccn2)[C@H]1c1ccccc1[N+](=O)[O-],0.376 µM,4.05 µM
Cc1sc2c(c1C)C(c1ccc(Cl)cc1)=N[C@@H](CC(=O)Nc1ccc(O)cc1)c1nnc(C)n1-2,0.212 µM,17.8 µM
O=c1[nH]cc(F)c(=O)[nH]1,–,> 100 µM and 1560 µM
COc1cccc2cc(N(C)c3nc(C)nc4ccsc34)ccc12,< 0.01 µM,–
CCN1CCN(c2nc(C)cc(N(CCCNc3ccnc4cc(Cl)ccc34)Cc3ccco3)n2)CC1,2.2 µM,5.28 µM
O=C1C(Cl)=C(Nc2ccc3c(c2NC2=C(Cl)C(=O)c4ccccc4C2=O)C(=O)c2ccccc2C3=O)C(=O)c2ccccc21,1.35 µM,3.85 µM
Cc1cc(Cl)ccc1Nc1nc(C(F)(F)F)ccc1C(=O)N/N=C/c1ccc(N(C)C)cc1,0.442 µM,4.67 µM
O=C(Nc1ccc([N+](=O)[O-])cc1)c1cc2ccccc2cc1O,0.898 µM,4.74 µM
Clc1ccc2c(NCCN3CCN(c4ccnc(N5CCCC5)n4)CC3)ccnc2c1,2.05 µM,5.09 µM
CN(C)S(=O)(=O)c1cccc(-c2nc3sc4c(c3c(=O)[nH]2)CCCC4)c1,8.92 µM,> 100 µM
O=C1/C(=C/c2ccc(C(F)(F)F)cc2)COc2ccc(O)cc21,1.53 µM,3.04 µM
C[C@@H]1CCC2[C@@H](C)[C@H](OC(=O)CCC(=O)NCCNC(=O)Cc3cc(=O)oc4cc(N(C)C)ccc34)O[C@@H]3O[C@]4(C)CC[C@@H]1C23OO4 (stereo partly specified),13.4 µM,59.4 µM
CO[C@H]1/C=C/C[C@H](C)[C@@H](C)S(=O)(=O)NC(=O)c2ccc3c(c2)N(C[C@@H]2CC[C@H]21)C[C@@]1(CCCc2cc(Cl)ccc21)CO3,0.166 µM,0.55 µM
